Literature values, collected in patent US20050188697A1, “Fluorinated ketone and fluorinated ethers as working fluids for thermal energy conversion” (HONEYWELL CORPORATION, priority 2004, published 2005).

Columns and labels:
[1] = for Critical Temperature, Tc: Table 4 input
[2] = at 1 atmosphere

SMILES	Critical Temperature, Tc [1] [°C]	Heat Capacity (liquid, 25° C.) [1] [J/g-mol K]	Flame Limits [2]	temperature at which toxic HCFC-133a is formed (thermal decomposition)	maximum temperature (thermal limitation) (to avoid formation of toxic HCFC-133a via thermal decomposition) [°C]
FC(F)(F)C(Cl)Cl [HCFC-123, 1,1-dichloro-2,2,2-trifluoroethane, reference compound]	183.6	160.3	None	below 300 ° F.	121.0
FC(F)CC(F)(F)F [HFC-245fa, 1,1,1,3,3-pentafluoropropane, reference compound]	151.1	185.5	None		
COC(F)(F)C(F)(F)C(F)(F)C(F)(F)F [Methyl (perfluorobutyl) ether, 1-methoxynonafluorobutane]	195.3	293.8	None		
COC(F)(F)C(F)(F)C(F)(F)F [Methyl (perfluoropropyl) ether, 1-methoxyheptafluoropropane]	165.0	260.0	None		
O=C(C(F)(F)C(F)(F)F)C(F)(C(F)(F)F)C(F)(F)F [Perfluoroethyl perfluoroisopropyl ketone, dodecafluoro-2-methylpentan-3-one]	168.7	348.5	None		
